Assay results reported in article PMC6681348 (Biomolecules, 2019).
“Also recorded” adds a separate entry of the source. Where two headings read alike, the source gives them in different places. Positions of bridges follow the written chain, without caps; N, C: chain ends. Residues, ends and D or L forms follow the SMILES beside them. No end group written: not given here.

Legend:
trypsin [1] = test: Trypsin inhibition assay; type: biochemical; conditions: substrate Phe-Pro-Arg-AMC; for trypsin inhibitory activity (in words): 16 concentrations, duplicates
Experimental: (§1) The inhibitory activity of peptides towards trypsin and chymotrypsin was tested the same as detailed in Wang’s study. Peptides were initially prepared in a range of 10^−3–10^−6 M and then diluted to 16 concentrations. Each dilution was tested in duplicates. Additionally, Phe-Pro-Arg-AMC and Succinyl-Ala-Ala-Pro-Phe-NHMec (obtained from Bachem, UK) were served as substrates for trypsin and chymotrypsin, respectively.

chymotrypsin = test: Chymotrypsin inhibition assay; type: biochemical; conditions: substrate Succinyl-Ala-Ala-Pro-Phe-NHMec, duplicates
Experimental: as §1

horse red blood cells = horse red blood cells 4% v/v, 37 °C, 2 h, concentrations up to 512 µM; 1% Triton X-100 = 100% haemolysis
Experimental: As described in the previous study, a suspension of horse red blood cells (4%, v/v) (TCS Biosciences, Botolph Claydon, Buckingham, UK) was incubated with peptides of the concentration range of 1 µM to 512 µM at 37 °C for 2 h to determine the peptide haemolytic activity. The positive control employed 1% TritonX-100 (Sigma, UK).

[2] = tested on: Candida albicans (NCPF 1467); conditions: MHB, broth dilution, 1-512 µM two-fold, 5 × 10^5 cfu/mL, seven replicates
Experimental: (§2) Staphylococcus aureus (NCTC 10788), Escherichia coli (NCTC 10418), and Candida albicans (NCPF 1467) were applied in the antimicrobial test. They all were cultured in Mueller-Hinton Broth (MHB). […] Peptides were incubated with subcultured bacteria cells (5 × 10^5 cfu/mL) and each concentration was performed in seven replicates.

[3] = tested on: Staphylococcus aureus (NCTC 10788); conditions: MHB, broth dilution, 1-512 µM two-fold, 5 × 10^5 cfu/mL, seven replicates
Experimental: as §2

[4] = tested on: Escherichia coli (NCTC 10418); conditions: MHB, broth dilution, 1-512 µM two-fold, 5 × 10^5 cfu/mL, seven replicates
Experimental: as §2

all tested microbes = conditions: single loop synthesized alone; cited from earlier work
Source text: The results just corresponded to the physicochemical properties of these two peptides.

trypsin [5] = test: trypsin cleavage; conditions: cited from earlier work
trypsin [6] = test: trypsin cleavage assay; conditions: up to 20 min
trypsin [7] = conditions: read-out: Ki, trypsin inhibition; cited from earlier work
Source text: Odorous frogs are distributed in East Asia and the surrounding areas, and they are named because of their smelly skin secretion, which plays a fundamental role in defensive systems. To date, hundreds of functional peptides have been isolated from Odorrana skin secretion, not only many potent antimicrobial peptides but also trypsin inhibitors. […] Combined with the data obtained from trypsin cleavage, each segment of both Kunitzin-OV and Kunitzin-RE was cleaved by trypsin via typical cleavage site Lys and Arg. […] Therefore, we assumed that the Lys close to the region of the protease-binding loop could act as a competitive position for trypsin activity ...

For `CC(C)C[C@H](NC(=O)[C@H](C)N)C(=O)N[C@@H](CCCCN)C(=O)N[C@@H](Cc1ccc(O)cc1)C(=O)N1CCC[C@H]1C(=O)N[C@@H](Cc1ccccc1)C(=O)N[C@@H](CCCNC(=N)N)C(=O)N[C@H]1CSSC[C@@H](C(=O)O)NC(=O)[C@H](Cc2ccccc2)NC(=O)[C@H](C)NC(=O)[C@H](C)NC(=O)[C@H](Cc2ccccc2)NC1=O` [F^9-Kunitzin-OV] (H-ALKYPFRCFAAFC-OH; disulfide 8-13 (inferred); N-terminus and C-terminus assumed), the “trypsin inhibitory activity (in words)” value (trypsin [1]) was “undetected; also recorded: disappeared; also recorded: vanished”, the “trypsin inhibitory activity (in words)” value (trypsin [1]; listed as site-substituted analogue) was “eliminated” and the Ki (chymotrypsin; 16 concentrations from 10^-3-10^-6 M, Morrison plot, read-out: Ki, chymotrypsin inhibitory activity) was 11800 ± 2090 nM. For the same molecule, the “chymotrypsin inhibitory activity (in words)” value (chymotrypsin; 16 concentrations) was “optimized chymotrypsin inhibitory activity”.

With `CC(C)C[C@H](NC(=O)[C@H](C)N)C(=O)N[C@@H](CCCCN)C(=O)N[C@@H](Cc1ccc(O)cc1)C(=O)N1CCC[C@H]1C(=O)N[C@@H](Cc1ccccc1)C(=O)N[C@@H](CCCNC(=N)N)C(=O)N[C@H]1CSSC[C@@H](C(=O)O)NC(=O)[C@H](Cc2ccccc2)NC(=O)[C@H](C)NC(=O)[C@H](C)NC(=O)[C@H](CCCCN)NC1=O` [Kunitzin-OV] (H-ALKYPFRCKAAFC-OH; disulfide 8-13) the haemolytic activity (horse red blood cells) was “less than 10%”, the “Minimum Inhibitory Concentration C. albicans” value [2] was 512 µM and the “Minimum Inhibitory Concentration S. aureus” value [3] was 512 µM. For the same molecule, the “Minimum Inhibitory Concentration E. coli” value [4] was 512 µM.

In the case of “-CKAAFC- (disulfide) [single disulfide loop of kunitzins synthesized alone by Chen and colleagues]”, the “antimicrobial activity (in words)” value (all tested microbes) is listed as “no activity was observed”.

For AAKIILNPKFRCKAAFC, the not cleaved (trypsin [5]) is given as “this did not happen to Kunitzin-RE”.

In the case of ALKYPFRCKAAFC, the fragment found (trypsin [6]) is reported as “ALKYPFR, first_seen, 0 min”.

For “AVNIPFKVHFRCKAAFC (disulfide 12-17 (inferred)) [OGTI]”, the Ki (trypsin [7]) is given as 400 nM.

B1: ovomucoid inhibitor (chicken): chicken egg white trypsin inhibitor Type III-O, more than 200 amino acid residues, served as a contrast (protein, UniProt P01005 25-210, looked up)
Ovomucoid: AEVDCSRFPNATDKEGKDVLVCNKDLRPICGTDGVTYTNDCLLCAYSIEFGTNISKEHDGECKETVPMNCSSYANTTSEDGKVMVLCNRAFNPVCGTDGVTYDNECLLCAHKVEQGASVDKRHDGGCRKELAAVSVDCSEYPKPDCTAEDRPLCGSDNKTYGNKCNFCNAVVESNGTLTLSHFGKC
For B1, the “trypsin inhibitory activity (in words)” value (trypsin [1]) was “more potent inhibitory activity than Kunitzin-OV”, the “trypsin inhibitory activity (in words)” value (trypsin [1]; listed as chicken egg white trypsin inhibitor Type III-O) was “faster and stronger inhibitory efficacy on trypsin than Kunitzin-OV” and the Ki (trypsin [1]; Morrison plot, contrast inhibitor) was 3.49 ± 0.505 nM.
